Reference: paper PMC10326142 (Cancer Chemotherapy and Pharmacology, 2023)
Values joined by “and” are separate entries in the source; they are usually repeats but may differ in a detail not shown here. Identical values can stand only once. Like-named read-outs stand apart in the source and are kept apart here. Values belong to the molecule of their own block, whether it stands above or below them.

Assays:
[1] = system: patients with solid tumors; parameters: method as in Wong et al 27; conditions: monotherapy 180mg, N=6; cell as count (percent), ref Wong et al 27; cited from earlier work
[2] = Plasma pharmacokinetics of neratinib and trametinib co-administered, cycle 1 day 15 (LC/MS, noncompartmental); format: in vivo, human; conditions: for Tmax / Ctau or C24 (trough concentration) / Half-life: plasma; for Ctau or C24 (trough concentration): mean (range) in Table 4; for Oral CLss (oral clearance at steady state): mean (range) in Table 4, mean ± spread in text
P-glycoprotein (P-gp) = system: P-glycoprotein (P-gp); parameters: method as in PMID 34664792; conditions: digoxin = P-gp substrate; cited from earlier work
patients = conditions: cited from earlier work
[3] = cited from earlier work
[4] = co-administered at dose level minus 1 (160 mg neratinib daily with 1 mg trametinib 5 days on and 2 days off), cycle 1 day 15, 8 patients
[5] = monotherapy 1mg, N=2, ref Infante et al 32
[6] = monotherapy 2mg, N=70, cell as count (percent), ref Infante et al 32
[7] = single agent trametinib 2 mg, 13 patients, mean (range), ref Infante et al. 32
[8] = single agent trametinib 2.5 mg, 16 patients, mean (range), ref Infante et al. 32
[9] = single agent trametinib 3 mg, 16 patients, mean (range), ref Infante et al. 32

changes in neratinib PKs compared to existing single agent PK data (in words) ([2]; PK cohort, co-administered with trametinib): no observed changes
Tmax ([2]; co-administered at dose level minus 1 (160 mg neratinib daily with 1 mg trametinib 5 days on and 2 days off), cycle 1 day 15, 8 patients, mean (range)): 5.8 (3–8) h
Ctau or C24 (trough concentration) [2, 4]: 43.99 (3.4–93) ng/mL
Oral CLss (oral clearance at steady state) [2, 4]: 76.7 ± 16.9 L/h
Oral CLss (oral clearance at steady state) ([2]; co-administered at dose level minus 1 (160 mg neratinib daily with 1 mg trametinib 5 days on and 2 days off), cycle 1 day 15, 8 patients, listed as Neratinib): 76.7 (56.5–93.5) L/h
AR (accumulation ratio) ([2]; co-administered at dose level minus 1 (160 mg neratinib daily with 1 mg trametinib 5 days on and 2 days off), day 15, 8 patients, mean (range)): 1.67 (1.19–2.16)
Half-life ([2]; human, oral): 18 h
Tmax ([2]; human, oral, read-out: Tmax): ~6 h
Structure (SMILES): CCOc1cc2ncc(C#N)c(Nc3ccc(OCc4ccccn4)c(Cl)c3)c2cc1NC(=O)/C=C/CN(C)C [neratinib]
Grade > 3 TRAE: Diarrhea [1]: 1 (17)
Grade > 3 TRAE: Fatigue [1]: 1 (17)
Grade > 3 TRAE: Nausea [1]: 0
Grade > 3 TRAE: Rash [1]: 0
Grade > 3 TRAE: Vomiting [1]: 0
TRAE of all grades: Anorexia [1]: 1 (17)
TRAE of all grades: Diarrhea [1]: 6 (100)
TRAE of all grades: Fatigue [1]: 4 (67)
TRAE of all grades: Nausea [1]: 3 (50)
TRAE of all grades: Rash [1]: 1 (17)
TRAE of all grades: Vomiting [1]: 2 (33)
increase of digoxin AUC (P-glycoprotein (P-gp)): 32%
increase of digoxin plasma concentrations (Cmax) (P-glycoprotein (P-gp)): 54%

Ctau or C24 (trough concentration) [2, 4]: 27.8 (8.5–42.2) ng/mL
Oral CLss (oral clearance at steady state) [2, 4]: 1.55 ± 0.63 L/h and 1.55 L/h
Oral CLss (oral clearance at steady state) ([2]; co-administered at dose level minus 1 (160 mg neratinib daily with 1 mg trametinib 5 days on and 2 days off), cycle 1 day 15, 8 patients, listed as Trametinib): 1.55 (0.95–2.4) L/h
Half-life ([2]; human, oral): 52 h
Tmax ([2]; human, oral, read-out: Tmax): 5.6 h
trametinib clearance when co-administered with neratinib (in words) ([2]; vs published single agent data): significantly reduced
Structure (SMILES): CC(=O)Nc1cccc(-n2c(=O)n(C3CC3)c(=O)c3c(Nc4ccc(I)cc4F)n(C)c(=O)c(C)c32)c1 [trametinib]
Grade > 3 TRAE: Fatigue (patients; [5]): 0
Grade > 3 TRAE: Nausea (patients; [5]): 0
TRAE of all grades: Mucositis (patients; [6]): 3 (4)
TRAE of all grades: Nausea (patients; [6]): 18 (26)
TRAE of all grades: Vomiting (patients; [6]): 9 (13)
oral clearance ([3]; published single agent data): 3.81 L/h
Cmax [3, 7]: 22.2 (14–32·9) ng/mL
Ctau or C24 [3, 7]: 12.1 (8.26–16.9) ng/mL
Half-life [3, 7]: 57.6 (4·01–210) h
AUC0-24 [3, 8]: 410 (215–865) ng*h/mL
Ctau or C24 [3, 8]: 15.1 (6.86–40.5) ng/mL
Half-life [3, 8]: 90.2 (58.4–183) h
AUC0-24 [3, 9]: 540 (261–968) ng*h/mL
Cmax [3, 9]: 33.4 (15.6–60.9) ng/mL
Ctau or C24 [3, 9]: 17.9 (7.77–35.5) ng/mL
Half-life [3, 9]: 86.1 (15.1–291) h
Tmax [3, 9]: 2.05 (0.5–10.0) h
